Measured values: patent US11702402B2, “Small molecules that block proteasome-associated ubiquitin receptor RPN13 function and uses thereof” (DANA-FARBER CANCER INSTITUTE, INC., priority 2018, dated 2023)

Columns and labels:
RPN13 = RPN13 (Homo sapiens, UniProt Q16186); assay: Rpn13 immunoblot in RPMI-8226 cells; format: cell-based; design: endogenous in cells; host or cells: MM.1S; MM.1S-CRBN KO; RPMI-8226; ANBL6.BR; conditions: RPMI-8226 (p53-mutated); 400 nM; 16 hours
Protocol: MM.1S cells, which were treated with DMSO control, bortezomib, or WL40 at indicated concentration for 3 hours; protein lysates were analyzed for different proteasome activities (CT-L, chymotrypsin-like; T-L, trypsin-like; C-L, caspase-like). FIG. 20B is a bar graph showing percent proteasome activity after normalization with DMSO control (mean±SD; n=3). Recombinant 20S proteasome was incubated with DMSO, bortezomib, or WL40 for 30 minutes, followed by assessment of the above-noted proteasome activities. FIG. 20C MM.1S cells were pretreated with exemplary proteasome inhibitor MG132 (10 μM) for 1 hour, followed by addition of WL40 (400 nM) for 8 hours. […] Total protein lysates were subjected to immunoblots for Rpn13 and α-tubulin. […] FIG. 20E ANBL6.BR cells were treated with WL40 (400 nM) or RA190 (500 nM) for 16 hours; protein lysates were subjected to immunoblot analysis using anti-Rpn13 or anti-β-actin Abs.
Cellular protein extracts were prepared using RIPA lysis buffer (50 mM Tris-HCl, 150 mM NaCl, 1% NP-40, 0.5% sodium deoxycholate, and 0.1% SDS). […]
Next, the effect of WL40 on additional MM cell lines, including p53-mutated RPMI-8226 cells or bortezomib-resistant ANBL6.BR cells, was evaluated. […]

[1] = test system: PARP, caspase-3, caspase-7, caspase-8, caspase-9; assay: PARP/caspase immunoblot and caspase enzymatic activity; format: cell-based, Human
Protocol: FIGS. 22A to 22F show the mechanisms of WL40-induced MM cell death. […] MM.1S cells were treated with DMSO control or WL40 (200 nM) for 16 hours, and then analyzed for apoptosis using Annexin V/PI double staining assay (mean±SD; n=3; p<0.001). FIG. 22B is an immunoblot of MM.1S and ANBL6.BR cells, which were treated with DMSO control or WL40 (200 nM for MM.1S; 1 μM for ANBL6.BR) for 16 hours; protein lysates were then subjected to the immunoblotting using antibodies against poly ADP ribose polymerase (PARP), caspase-3, caspase-7, caspase-8, caspase-9, or β-actin. FL, full length; CF, cleaved fragment. FIG. 22C is a bar graph measuring enzymatic activity. MM.1S cells were treated with DMSO control or WL40 (200 nM) for 12 hours, followed by the measurement of caspase-3, caspase-8, or caspase-9 enzymatic activity (mean±SD; n=3; p<0.0001). FIG. 22D is an immunoblot of MM.1S and ANBL6.BR cells, which were treated with DMSO control or WL40 (200 nM for MM.1S; 1 μM for ANBL6.BR) for 16 hours; protein lysates were then subjected to the immunoblotting using specific antibodies against Cyclin-B1, Cell Division Cycle 25C (CDC25C), Cell Division Cycle 2 (CDCl2), or β-actin. […]

Sequence of RPN13 (Q16186 whole entry): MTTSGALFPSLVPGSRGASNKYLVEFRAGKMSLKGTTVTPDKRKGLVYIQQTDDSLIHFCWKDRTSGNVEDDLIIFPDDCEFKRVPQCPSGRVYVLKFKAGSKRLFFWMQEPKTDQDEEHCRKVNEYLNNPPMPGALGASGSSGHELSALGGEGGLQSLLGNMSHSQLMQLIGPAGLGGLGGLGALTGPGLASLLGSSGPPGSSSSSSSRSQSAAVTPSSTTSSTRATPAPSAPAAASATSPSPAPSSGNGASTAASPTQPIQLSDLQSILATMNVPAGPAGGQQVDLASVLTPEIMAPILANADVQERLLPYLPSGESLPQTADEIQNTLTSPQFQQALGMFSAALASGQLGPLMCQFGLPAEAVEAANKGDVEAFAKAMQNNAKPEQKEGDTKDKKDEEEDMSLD

O=C1CCC(N2C(=O)c3cccc(NCCOCCOCCOCCC(=O)N[C@@H](Cc4ccccc4)C(=O)N4C/C(=C\c5ccc(Cl)c(Cl)c5)C(=O)/C(=C/c5ccc(Cl)c(Cl)c5)C4)c3C2=O)C(=O)N1 (stereo partly drawn) [WL40]
Rpn13 levels (immunoblot) (RPN13): induced RPN13 degradation
PARP cleavage (immunoblot) ([1]; 200 nM for MM.1S, 1 μM for ANBL6.BR, 16 hours): proteolytic cleavage of Poly (ADP) ribose polymerase (PARP)
caspase activation ([1]; MM.1S 200 nM, immunoblot 16 hours, enzymatic activity 12 hours): activation of caspase-3, caspase-7, caspase-8 and caspase-9
